Seven compounds from US20260083750A1, “SMALL MOLECULE INHIBITORS OF KRAS PROTEINS” (MERCK SHARP & DOHME LLC, priority 2022, published 2026) can be followed below.

pIC50: −log10 of the molar value. Bounds are passed on as bounds.

The target in test [1] is T1, KRAS-G12C (C51S/C80L/C118S) (Homo sapiens, UniProt P01116, C118S/C51S/C80L/G12C).
T1 construct: N-terminal biotin-acceptor peptide […]
In words: SOS-catalyzed nucleotide exchange assay (Procedure A, TR-FRET). The test is classed as biochemical. Particulars: 60 min preincubation, SOS + GTP, read-out: KRAS G12C GNE IC50. From the text:
(§1) Procedure for SOS-Catalyzed Nucleotide Exchange Assay for KRAS-G12C/D/V, G13D, HRAS, and NRAS (Procedure A)
(§2) Recombinant KRAS-G12C protein used in this assay has an additional triple mutation (C51S/C80L/C118S), whereas KRAS-G12D/V, G13D, HRAS and NRAS are in context of their WT protein sequence background. Specifically, the SOS-catalyzed nucleotide exchange assay utilizes a preformed TR-FRET complex containing a specific biotinylated RAS protein (KRAS-G12C/V/D, G13D, HRAS, NRAS; described above) with Bodipy-GDP, and Terbium-streptavidin. Compounds are preincubated with this complex for 60 minutes. Subsequently, recombinant human SOS protein and unlabeled GTP are added to initiate the exchange reaction. Small molecule inhibitors stabilize the Bodipy-GDP complex whereas the untreated protein rapidly exchanges Bodipy-GDP for unlabeled GTP resulting in reduced TR-FRET signal.
(§3) To assemble the preformed TR-FRET complexes, each biotinylated RAS protein is diluted to 2 μM in an EDTA Buffer (20 mM HEPES pH 7.5, 50 mM sodium chloride, 10 mM EDTA, and 0.01% Tween) and incubated at room temperature for one hour. This mixture is then further diluted to 90 nM in an Assay Buffer (20 mM HEPES pH 7.5, 150 mM sodium chloride, 10 mM magnesium chloride, and 0.005% Tween) containing 15 nM of Terbium-Streptavidin (Invitrogen, catalog #PV3577) and 900 nM of Bodipy-GDP (Invitrogen, catalog #G22360) and incubated at room temperature for six hours. It should be noted that this preformed TR-FRET complex for each of the RAS protein were made ahead of time, aliquoted and stored at −80° C. until the day of the experiment.
(§4) Each test compound (10 mM stock in DMSO) is diluted in DMSO to make a final-10-point, 3-fold dilution and is acoustically dispensed into a 384-well assay plate (Corning, catalog #3820) using an Echo 550 (Labcyte). Each well of the assay plate receives 3 μL of a specific 3× RAS preformed TR-FRET complex and 3 μL of Assay Buffer and is incubated at room temperature for 60 minutes (preincubation time). Each well then receives 3 μL of 3× recombinant human SOS protein and GTP (Sigma, G8877) in Assay Buffer and is incubated at room temperature for 30 minutes (G13D), 60 minutes (G12C/D, H/NRAS) or 90 minutes for G12V. The final reaction in each well of […] consists of 3 mM GTP, specific Ras and SOS proteins in the following concentrations: KRAS-G12C/SOS=3 nM/40 nM, KRAS-G12D/SOS=1 nM/40 nM, KRAS-G12V/SOS=1.25 nM/160 nM, KRAS-G13D/SOS=1.25 nM/0 nM, HRAS & NRAS=1.25 nM/40 nM.
(§5) The time-resolved fluorescence resonance energy transfer (TR-FRET) signal is measured on an Envision (PerkinElmer) plate reader: Excitation filter=340 nm; emission1=495 nm; emission2=520 nm; dichroic mirror=D400/D505; delay time=[…]. The signal of each well is determined as the ratio of the emission at 520 nm to that at 495 nm. […] The apparent effect as a function of compound concentration is fit to a four-parameter logistic equation.
For orientation: In TR-FRET formats the signal depends on donor and acceptor labels being close together.

The next test addresses T2, KRAS-G12V (Homo sapiens, UniProt P01116, G12V).
T2 construct: N-terminal biotin-acceptor peptide […]
Described as above. It counts as biochemical. Conditions: 60 min preincubation, SOS + GTP, read-out: KRAS G12V GNE IC50.
Source text: as §1, §2, §3, §4, §5

In a further test the target is T3, KRAS-G13D (Homo sapiens, UniProt P01116, G13D).
T3 construct: N-terminal biotin-acceptor peptide […]
T3 sequence (P01116 with tags, fused parts or gaps isoform P01116-2 G13D): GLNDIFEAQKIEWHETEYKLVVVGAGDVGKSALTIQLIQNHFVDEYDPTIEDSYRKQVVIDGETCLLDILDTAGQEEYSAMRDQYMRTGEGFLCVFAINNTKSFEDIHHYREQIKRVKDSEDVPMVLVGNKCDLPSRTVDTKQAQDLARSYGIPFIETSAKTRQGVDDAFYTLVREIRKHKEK
The description is as above. It counts as biochemical. Conditions: 60 min preincubation, GTP, read-out: KRAS G13D GNE IC50.
Source text: as §1, §2, §3, §4, §5

In a further test the target is HRAS (Homo sapiens, UniProt P01112). The test is described as above. Conditions: 60 min preincubation, SOS + GTP, read-out: HRAS GNE IC50. It counts as biochemical.
Sequence of HRAS (P01112 with tags, fused parts or gaps): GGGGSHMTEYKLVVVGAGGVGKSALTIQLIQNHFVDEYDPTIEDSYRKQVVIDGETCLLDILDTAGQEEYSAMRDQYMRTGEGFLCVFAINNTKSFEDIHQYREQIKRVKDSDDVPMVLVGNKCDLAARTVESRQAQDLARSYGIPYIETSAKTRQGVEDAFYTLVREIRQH
Source text: as §1, §2, §3, §4
(§6) The time-resolved fluorescence resonance energy transfer (TR-FRET) signal is measured on an Envision (PerkinElmer) plate reader: Excitation filter=340 nm; emission1=495 nm; emission2=520 nm; dichroic mirror=D400/D505; delay time=[…]. The signal of each well is determined as the ratio of the emission at 520 nm to that at 495 nm. Percent effect of each well is determined after normalization to control wells containing DMSO (no effect) or a saturating concentration of inhibitor (max effect). The apparent effect as a function of compound concentration is fit to a four-parameter logistic equation.

Another test concerns the target NRAS (Homo sapiens, UniProt P01111). The description is as above. It counts as biochemical. Particulars: 60 min preincubation, SOS + GTP, read-out: NRAS GNE IC50.
Source text: as §1, §2, §3, §4, §6

A further test deals with T4, KRAS-G12D (Homo sapiens, UniProt P01116, G12D).
T4 construct: N-terminal biotin-acceptor peptide […]
T4 sequence (P01116 with tags, fused parts or gaps isoform P01116-2 G12D): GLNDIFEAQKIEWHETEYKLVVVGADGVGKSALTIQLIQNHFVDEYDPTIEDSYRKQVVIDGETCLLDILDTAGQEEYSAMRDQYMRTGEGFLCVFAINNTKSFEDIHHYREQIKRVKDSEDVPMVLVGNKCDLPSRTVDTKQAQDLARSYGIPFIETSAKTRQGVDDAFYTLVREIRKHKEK
The test is described as above. The test is classed as biochemical. Conditions: 60 min preincubation, SOS + GTP, read-out: KRAS G12D GNE IC50.
Source text: as §1, §2, §3, §4, §5

Test [2] concerns PANC08.13 cells (homozygous KRAS-G12D activating mutation). In words: Cellular phospho-ERK assay in G12D cell line. The test is classed as cell-based. Particulars: Homo sapiens, PANC-08-13, 2 hours compound incubation, ratio of p-ERK vs. total ERK, read-out: PANC 0813 pERK IC50. As to the method:
Procedure for Cellular Phospho-ERK Assay in G12D and G12V Cell Lines
PANC08.13 cells (ATCC® CRL-2551™), containing homozygous KRAS-G12D activating mutation, were cultured in growth medium made of RPMI1640-GlutaMAX™—I (ThermoFisher Scientific 61870) containing 15% heat inactivated fetal bovine serum (ThermoFisher Scientific 10091148)). SW620 cells (ATCC® […]), containing homozygous KRAS-G12V activating mutation, were cultured in growth medium that contains RPMI 1640-GlutaMAX™—I (ThermoFisher Scientific 61870) containing 10% heat inactivated fetal bovine serum (ThermoFisher Scientific 10091148).
Cells for the assay were harvested in growth medium after TrypLE (ThermoFisher scientific 12604021) digestion and were seeded in a 384-well collagen coated cell culture plate (Corning 356702) at a density of 10,000-15,000 cells/20 uL/well, and incubated at 37° C., 5% CO2 overnight. The compound (with 10 mM stock concentration) dose-response titrations were prepared [30 μM final ERK detection assay concentration and 1:3 dilutions, 10-point dose response] and appropriate amounts (270 nL) of test compounds were dispensed in a 384-well intermediate plate using an Echo 550 liquid handler. 30 uL/well of RPMI medium 1640-GlutaMAX™—I was added to the intermediate plate and the contents of the intermediate plate (10 uL/well) were then transferred to the 384-well collagen coated cell culture plate, which was incubated at 37° C., 5% CO2 for 2 hours. After removal of medium from the collagen coated cell culture plate, cells were lysed in lysis buffer from Alpha SureFire® Ultra™ Multiplex p-ERK and total ERK assay kit (PerkinElmer MPSU-PTERK) containing Halt™ Protease and Phosphatase inhibitor cocktail (ThermoFisher Scientific 78446) at room temperature with constant shaking at 300 rpm for 30 minutes. The cell lysates were then transferred to an OptiPlate-384 plate (PerkinElmer 6005620), and the phosphorylation of ERK (p-ERK) and total ERK levels were detected by Alpha SureFire® Ultra™ Multiplex p-EEK kit and total ERK assay kit (PerkinElmer MPSU-PTERK) following the manufacturer's protocol. Assay plates were read on a EnVision Multimode Plate Reader (PerkinElmer), and the ratio of p-ERK vs. total ERK in each well was used as the final readout. Dose response curves were analyzed using a 4-parameter logistic model to calculate IC50 values using Spotfire software.

T1 sequence (P01116 with tags, fused parts or gaps isoform P01116-2 G12C/C51S/C80L/C118S): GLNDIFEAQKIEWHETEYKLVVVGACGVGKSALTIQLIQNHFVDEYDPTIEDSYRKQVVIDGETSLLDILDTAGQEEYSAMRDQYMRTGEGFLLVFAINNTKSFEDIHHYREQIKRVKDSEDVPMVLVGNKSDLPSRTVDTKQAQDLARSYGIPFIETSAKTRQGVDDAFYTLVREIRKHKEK
T2 sequence (P01116 with tags, fused parts or gaps isoform P01116-2 G12V): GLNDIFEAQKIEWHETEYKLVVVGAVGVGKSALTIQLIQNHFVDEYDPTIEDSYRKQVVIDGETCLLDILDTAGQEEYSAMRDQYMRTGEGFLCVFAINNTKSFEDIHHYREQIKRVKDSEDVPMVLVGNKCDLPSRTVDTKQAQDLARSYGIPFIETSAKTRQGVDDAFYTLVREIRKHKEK
Sequence of NRAS (P01111 with tags, fused parts or gaps): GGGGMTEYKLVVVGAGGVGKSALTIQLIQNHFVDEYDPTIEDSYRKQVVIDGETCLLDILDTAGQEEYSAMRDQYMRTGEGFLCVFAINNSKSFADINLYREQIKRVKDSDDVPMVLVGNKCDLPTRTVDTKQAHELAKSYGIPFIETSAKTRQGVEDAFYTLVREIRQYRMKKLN

As usually defined, the pIC50 is −log10 of the IC50, conventionally taken in molar units. On to `N#Cc1c(N)sc2c(F)ccc(-c3c(Cl)cc4c(N5CCCOCC5)nc(OC[C@]5(CO)CC5(F)F)nc4c3F)c12` [Ex. 32, 2-amino-4-(6-chloro-2-(((R)-2,2-difluoro-1-(hydroxymethyl)cyclopropyl)methoxy)-8-fluoro-4-(1,4-oxazepan-4-yl)quinazolin-7-yl)-7-fluorobenzo[b]thiophene-3-carbonitrile], for which the pIC50 was 6.05 in test [1]; 5.46 on KRAS-G12V; 6.10 at KRAS-G13D; under 4.96 on HRAS; under 4.96 on NRAS.

In the case of `Cc1cc(N)nc(-c2c(F)cc3c(N4CC[C@@H]5[C@@H](C#N)[C@@H]5CC4)nc(OC[C@@]45CCCN4C[C@H](F)C5)nc3c2F)c1C(F)(F)F` [Ex. 45, (1R,7S,8S)-4-(7-(6-amino-4-methyl-3-(trifluoromethyl)pyridin-2-yl)-6,8-difluoro-2-(((2R,7aS)-2-fluorotetrahydro-1H-pyrrolizin-7a(5H)-yl)methoxy)quinazolin-4-yl)-4-azabicyclo[5.1.0]octane-8-carbonitrile], the pIC50 in test [1] was 5.76; at KRAS-G12D it was 5.35; on KRAS-G12V, 5.83; at KRAS-G13D it was at most 4.96; at HRAS it was under 4.96; at NRAS, under 4.96.

For the compound `N#Cc1c(N)sc2c(F)ccc(-c3c(Cl)cc4c(N5CCOCCC5C(F)(F)F)nc(OC[C@@]56CCCN5C[C@H](F)C6)nc4c3F)c12` (stereo partly drawn) [compound 15, 2-amino-4-(6-chloro-8-fluoro-2-(((2R,7aS)-2-fluorotetrahydro-1H-pyrrolizin-7a(5H)-yl)methoxy)-4-(5-(trifluoromethyl)-1,4-oxazepan-4-yl)quinazolin-7-yl)-7-fluorobenzo[b]thio-phene-3-carbonitrile], the pIC50 was 7.03 on KRAS-G12D, 7.70 at KRAS-G12V and 6.33 in test [2].

Consider `CC1(NC[C@@]2(COc3nc(N4CCCOCC4)c4cc(Cl)c(-c5ccc(F)c6sc(N)c(C#N)c56)c(F)c4n3)CC2(F)F)CC1` [compound 27, 2-amino-4-(6-chloro-2-(((R)-2,2-difluoro-1-(((1-methylcyclopropyl)a-mino)methyl)cyclopro-pyl)methoxy)-8-fluoro-4-(1,4-oxazepan-4-yl)quinazolin-7-yl)-7-fluorobenzo[b]thiophene-3-carbonitrile], for which the pIC50 was 6.62 in test [1]; 5.30 on KRAS-G12D; 6.83 on KRAS-G12V; 6.07 at KRAS-G13D; under 4.96 at HRAS; under 4.96 at NRAS.

As for `CC1(NC[C@@]2(COc3nc(N4CCCOCC4)c4cc(Cl)c(-c5ccc(F)c6sc(N)c(C#N)c56)c(F)c4n3)CC2(F)F)COC1` [compound 29, 2-amino-4-(6-chloro-2-(((R)-2,2-difluoro-1-(((3-methyloxetan-3-yl)amino)methyl)cyclo-propyl)methoxy)-8-fluoro-4-(1,4-oxazepan-4-yl)quinazolin-7-yl)-7-fluorobenzo[b]thiophene-3-carbonitrile], the pIC50 in test [1] was 6.41; on KRAS-G12D, 5.63; at KRAS-G12V, 6.56; at KRAS-G13D, 6.03; at HRAS, under 4.96; at NRAS, under 4.96.

Take `N#Cc1c(N)sc2c(F)ccc(-c3c(Cl)cc4c(N5CCCOCC5)nc(OC[C@]5(CN6CCOCC6)CC5(F)F)nc4c3F)c12` [compound 31, 2-amino-4-(6-chloro-2-(((R)-2,2-difluoro-1-(morpholinomethyl)cy-clopropyl)methoxy)-8-fluoro-4-(1,4-oxazepan-4-yl)quinazolin-7-yl)-7-fluorobenzo[b]thiophene-3-carbonitrile]: the pIC50 in test [1] was 5.93; at KRAS-G12D it was 5.60; at KRAS-G12V, 6.82; on KRAS-G13D it was 6.13; on HRAS, under 4.96; on NRAS, under 4.96.

As to `N#Cc1c(N)sc2c(F)ccc(-c3c(Br)cc4c(N5CCCOCC5)nc(OC[C@@]56CCCN5C[C@H](F)C6)nc4c3F)c12` [compound 37, 2-amino-4-(6-bromo-8-fluoro-2-(((2R,7aS)-2-fluorotetrahydro-1H-pyrrolizin-7a(5H)-yl)methoxy)-4-(1,4-oxazepan-4-yl)quinazolin-7-yl)-7-fluorobenzo[b]thiophene-3-carbonitrile], the values for the pIC50 (on KRAS-G12D; at KRAS-G12V; in test [2]) were 8.08, 8.45 and 7.31, respectively.
